pIC50: −log10 of the molar value.

The target in data set [1] is T1, Cytochrome P450 11B1, mitochondrial (Homo sapiens, UniProt P15538).
T1 sequence (P15538 whole entry): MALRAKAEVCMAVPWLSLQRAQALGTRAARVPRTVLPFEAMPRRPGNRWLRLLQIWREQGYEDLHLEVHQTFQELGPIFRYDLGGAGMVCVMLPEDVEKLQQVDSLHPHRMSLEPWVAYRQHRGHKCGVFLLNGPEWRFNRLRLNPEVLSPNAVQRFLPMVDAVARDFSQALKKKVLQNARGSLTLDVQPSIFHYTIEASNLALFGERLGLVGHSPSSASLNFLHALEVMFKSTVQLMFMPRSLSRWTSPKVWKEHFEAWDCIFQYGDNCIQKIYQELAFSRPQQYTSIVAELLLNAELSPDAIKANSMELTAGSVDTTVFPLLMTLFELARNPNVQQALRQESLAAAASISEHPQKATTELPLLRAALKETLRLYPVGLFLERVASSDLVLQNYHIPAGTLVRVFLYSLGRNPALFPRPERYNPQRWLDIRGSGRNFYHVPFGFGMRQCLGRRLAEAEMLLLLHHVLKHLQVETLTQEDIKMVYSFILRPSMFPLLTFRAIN
The experiment in a line: Inhibition of human CYP11B1 expressed in hamster V79MZ cells using 11-deoxycorticosterone substrate. The data set is classed as cell-based.

Data set [2] addresses T2, Cytochrome P450 11B2, mitochondrial (Homo sapiens, UniProt P19099).
T2 sequence (P19099 whole entry): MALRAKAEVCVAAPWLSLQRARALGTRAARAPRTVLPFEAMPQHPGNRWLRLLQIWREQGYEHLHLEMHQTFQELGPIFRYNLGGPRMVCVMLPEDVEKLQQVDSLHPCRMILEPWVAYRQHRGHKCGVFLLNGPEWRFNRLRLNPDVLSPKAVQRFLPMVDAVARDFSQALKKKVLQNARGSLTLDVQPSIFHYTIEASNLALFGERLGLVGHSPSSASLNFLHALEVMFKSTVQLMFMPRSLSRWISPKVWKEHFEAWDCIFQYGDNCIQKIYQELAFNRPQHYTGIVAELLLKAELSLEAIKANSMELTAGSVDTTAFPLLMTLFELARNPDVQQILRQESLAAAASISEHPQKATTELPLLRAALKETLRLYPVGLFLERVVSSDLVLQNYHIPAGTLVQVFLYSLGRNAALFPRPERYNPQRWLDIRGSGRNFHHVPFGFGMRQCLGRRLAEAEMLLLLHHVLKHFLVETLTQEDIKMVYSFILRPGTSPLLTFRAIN
The experiment in a line: Inhibition of human CYP11B2 expressed in hamster V79MZ cells using 11-deoxycorticosterone substrate. The data set is classed as cell-based.

The species named for another data set is Homo sapiens. The experiment in a line: Selectivity index, ratio of IC50 for human CYP11B2 to IC50 for human CYP11B1.
A further data set addresses T3, CYP17 (Homo sapiens, UniProt P05093).
T3 sequence (P05093 whole entry): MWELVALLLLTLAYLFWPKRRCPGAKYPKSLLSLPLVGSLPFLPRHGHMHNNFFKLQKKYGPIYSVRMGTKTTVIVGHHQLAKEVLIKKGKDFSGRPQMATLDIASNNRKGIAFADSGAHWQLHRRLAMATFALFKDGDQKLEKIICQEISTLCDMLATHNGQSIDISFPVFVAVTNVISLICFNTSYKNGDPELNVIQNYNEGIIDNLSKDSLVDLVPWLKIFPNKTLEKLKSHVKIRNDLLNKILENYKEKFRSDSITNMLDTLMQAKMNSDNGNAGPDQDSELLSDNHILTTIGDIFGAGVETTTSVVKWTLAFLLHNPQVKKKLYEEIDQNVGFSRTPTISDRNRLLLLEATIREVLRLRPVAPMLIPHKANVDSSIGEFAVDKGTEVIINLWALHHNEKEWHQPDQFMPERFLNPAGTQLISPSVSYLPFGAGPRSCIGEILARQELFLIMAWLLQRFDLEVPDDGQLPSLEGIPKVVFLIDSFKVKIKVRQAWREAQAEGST
The data set is described as follows: (§1) Inhibition of human recombinant CYP17 expressed in Escherichia coli at 2 uM using progesterone substrate. Particulars: recombinant human CYP17 expressed in Escherichia coli, probe progesterone; call rule not given here.

The target of another data set is T4, CYP19 (aromatase) (Homo sapiens, UniProt P11511).
T4 sequence (P11511 whole entry): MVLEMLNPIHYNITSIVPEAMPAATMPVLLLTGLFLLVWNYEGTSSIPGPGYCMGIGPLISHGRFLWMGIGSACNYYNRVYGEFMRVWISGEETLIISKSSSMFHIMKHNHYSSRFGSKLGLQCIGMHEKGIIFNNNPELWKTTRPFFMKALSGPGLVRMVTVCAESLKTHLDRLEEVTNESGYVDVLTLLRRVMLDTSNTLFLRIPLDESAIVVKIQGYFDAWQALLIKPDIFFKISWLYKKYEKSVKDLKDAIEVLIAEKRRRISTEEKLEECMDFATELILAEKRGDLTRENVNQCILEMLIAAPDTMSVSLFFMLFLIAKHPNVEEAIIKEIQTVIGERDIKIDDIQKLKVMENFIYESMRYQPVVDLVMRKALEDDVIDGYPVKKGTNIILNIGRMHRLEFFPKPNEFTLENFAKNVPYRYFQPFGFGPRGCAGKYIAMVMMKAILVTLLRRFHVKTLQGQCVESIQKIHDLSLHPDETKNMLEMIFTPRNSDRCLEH
The experiment in a line: Inhibition of human placental microsomes CYP19 at 500 nM using androstenedione substrate. Particulars: human placental microsomes, probe androstenedione.

The target of data set [3] is T5, Steroid 17-alpha-hydroxylase/17,20 lyase (Homo sapiens, UniProt P05093).
T5 sequence (P05093 whole entry): T3 sequence (P05093 whole entry)
Described as §1. The following applies: 2 µM.

Usually pIC50 stands for the negative decadic logarithm of the IC50, by convention in mol/L. For orientation: inhibition means the relative decrease from the control value, in per cent. For the compound `c1ccc(-c2ccc(Cn3ccnc3)s2)cc1`, the pIC50 in data set [1] is 7.37; in data set [2], 6.45. Also, the Ratio IC50 in the data set filed under Homo sapiens stood at 8.2. Further, the inhibition at 2 µM at CYP17 is 21%. At CYP19 (aromatase), this compound showed an inhibition at 0.5 µM of 12%.

As to `c1ccc(-c2cc(Cn3ccnc3)cc(-c3ccccc3)c2)cc1`, the pIC50 in data set [1] was 6.89; in data set [2], 6.48. Also, the Ratio IC50 in the data set filed under Homo sapiens was found to be 2.6. In addition, the inhibition at 2 µM on CYP17 turned out to be 52%. On CYP19 (aromatase), this compound displayed an inhibition at 0.5 µM of 12%.

On to `c1ccc(-c2ccc(Cn3ccnc3)cc2)cc1`, for which the negative logarithm of the IC50 (pIC50) is 7.49 in data set [1] and 6.20 in data set [2]. In addition, the Ratio IC50 in the data set listed under Homo sapiens was 20. Further, on CYP17, the inhibition at 2 µM is 40%. This compound came in with an inhibition at 0.5 µM on CYP19 (aromatase) of 5%.

As for `c1ccc(C(CCn2ccnc2)(c2ccccc2)c2ccccc2)cc1`, the negative-log IC50 (pIC50) in data set [1] is 7.10; in data set [2], 6.54. Also, the Ratio IC50 in the data set filed under Homo sapiens is 3.6. Further, the “inhibition (INH)” value in data set [3] is on record as “Not Active”. This compound also returned an inhibition at 0.5 µM on CYP19 (aromatase) of 38%.

With `c1ccc(-c2ccc(Cn3ccnc3)o2)cc1`, the pIC50 was 7.34 in data set [1] and 6.43 in data set [2]. Moreover, the Ratio IC50 in the data set filed under Homo sapiens came to 8.1. Also, at CYP17, the inhibition at 2 µM came out at 0%. This compound also yielded an inhibition at 0.5 µM against CYP19 (aromatase) of 38%.

With `c1ccc(C(c2ccccc2)(c2ccccc2)n2ccnc2)cc1`, the negative logarithm of the IC50 (pIC50) was 8.52 in data set [1] and 7.96 in data set [2]. Moreover, the Ratio IC50 in the data set listed under Homo sapiens came to 3.4. Besides, the “inhibition (INH)” value in data set [3] is listed as “Not Active”. On CYP19 (aromatase), this compound showed an inhibition at 0.5 µM of 38%.

Turning to `Cc1c(C)c(C)c(Cn2ccnc2)c(C)c1C`, the values for the negative logarithm of the IC50 (pIC50) in data set [1] and in data set [2] were 8.30 and 7.64, respectively. For the same compound, the Ratio IC50 in the data set filed under Homo sapiens is 4.6. Further, the “inhibition (INH)” value in data set [3] is listed as “Not Active”. This compound gave an inhibition at 0.5 µM on CYP19 (aromatase) of 12%.

Turning to `c1ccc(-c2cccc(Cn3ccnc3)c2)cc1`, the pIC50 is 7.34 in data set [1] and 6.58 in data set [2]. The Ratio IC50 in the data set filed under Homo sapiens was 5.8. In addition, the “inhibition (INH)” value in data set [3] is listed as “Not Active”. At CYP19 (aromatase), the inhibition at 0.5 µM turned out to be 38%.

Consider `Cc1cccc(Cn2ccnc2)c1`, for which the values for the pIC50 in data set [1] and in data set [2] were 7.32 and 6.96, respectively. In the data set filed under Homo sapiens, the Ratio IC50 was 2.3. For the same compound, the “inhibition (INH)” value in data set [3] is “Not Active”. For the same compound, at 0.5 µM the inhibition against CYP19 (aromatase) was 12%.

`Cc1cc(C)cc(Cn2ccnc2)c1`: the pIC50 is 7.49 in data set [1] and 7.11 in data set [2]. Moreover, the Ratio IC50 in the data set filed under Homo sapiens stood at 2.4. In data set [3], the “inhibition (INH)” value is “Not Active”. Further, at CYP19 (aromatase), the inhibition at 0.5 µM was determined as 38%.

For the origin of these results see ChEMBL document CHEMBL1649094, “First Selective CYP11B1 Inhibitors for the Treatment of Cortisol-Dependent Diseases” (ACS Med Chem Lett, 2011).
